Test results from ChEMBL document CHEMBL1201862, “PubChem BioAssay data set” (2004).
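Five compound concentrations were applied to cells in 96-well plates for 48 hours; endpoints were derived by simple linear interpolation of the resulting dose-response curve. GI50 = concentration required for 50% inhibition of growth.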 Calls of active or inactive are those of the source. Rule as the data show it: active = GI50 up to about 1.1 µM and inactive = higher.

How the values were obtained:
Assay in all cases: DTP human tumour cell line panel, 48 h
[1] = system: M14
[2] = system: TK-10
[3] = system: OVCAR-4
[4] = system: SK-MEL-28
[5] = system: MDA-N
[6] = system: UACC-62
[7] = system: NCI-H522
[8] = system: SK-OV-3
[9] = system: ACHN
[10] = system: NCI/ADR-RES
[11] = system: SF-295
[12] = system: A498
[13] = system: IGROV-1
[14] = system: SK-MEL-5
[15] = system: SNB-75
[16] = system: HOP-62
[17] = system: K562
[18] = system: SF-539
[19] = system: EKVX

Measured: GI50

COc1ccc(-c2c(C(C)=O)c(C)n(C3OC(COC(C)=O)C(OC(C)=O)C(OC(C)=O)C3OC(C)=O)c(=S)c2C#N)cc1 (centres undefined)
inactive: [1] > 100 µM | [2] > 100 µM | [3] 73.1 µM | [4] > 100 µM | [5] > 100 µM | [6] 36.6 µM | [7] > 100 µM | [8] > 100 µM | [9] > 100 µM | [10] 71 µM | [11] 69 µM | [12] > 100 µM | [13] > 100 µM | [14] 63.1 µM | [15] 75.5 µM | [16] > 100 µM | [17] 68.5 µM | [18] > 100 µM

CCN1CCC(O)(/C=C/c2ccc(OC)cc2)C(C(=O)/C=C/c2ccc(OC)cc2)C1 (centres undefined)
inactive: [1] 15.5 µM | [2] 13.8 µM | [3] 13.3 µM | [4] 12 µM | [5] 7.5 µM | [19] 13.6 µM | [6] 12 µM | [7] 12.5 µM | [8] 10.6 µM | [9] 13.7 µM | [10] 6.15 µM | [11] 11.8 µM | [12] 13.3 µM | [13] 13.7 µM | [16] 18.2 µM | [17] 2.75 µM | [18] 13.7 µM

COc1ccc(-c2nnc(CCCCCCCCc3nnc(-c4ccc(OC)cc4)o3)o2)cc1
inactive: [1] > 100 µM | [2] 65.2 µM | [3] > 100 µM | [4] > 100 µM | [5] > 100 µM | [19] > 100 µM | [7] 84.3 µM | [8] 54.2 µM | [9] > 100 µM | [10] > 100 µM | [11] 50.4 µM | [12] 44.4 µM | [13] > 100 µM | [14] > 100 µM | [15] 27 µM | [16] 25.4 µM | [17] > 100 µM | [18] 63.7 µM

O=[N+]([O-])c1ccc(OCc2nnc(CCCCCCCCc3nnc(COc4ccc([N+](=O)[O-])cc4)o3)o2)cc1
inactive: [1] > 100 µM | [2] > 100 µM | [3] > 100 µM | [4] > 100 µM | [19] > 100 µM | [6] > 100 µM | [7] > 100 µM | [8] 40.6 µM | [9] > 100 µM | [10] > 100 µM | [11] > 100 µM | [12] > 100 µM | [13] > 100 µM | [14] > 100 µM | [15] > 100 µM | [17] > 100 µM

COC(=O)C1=C(CCCCO[Si](C)(C)C(C)(C)C)NC(=O)N2[C@H](CCOCc3ccccc3)CC[C@@H]12
inactive: [1] 58.3 µM | [2] > 100 µM | [3] > 100 µM | [4] > 100 µM | [5] 55.3 µM | [19] 31.5 µM | [6] > 100 µM | [7] 15.5 µM | [8] > 100 µM | [9] > 100 µM | [10] 32.7 µM | [11] 33.1 µM | [12] > 100 µM | [14] 13 µM | [15] 43.7 µM | [16] > 100 µM | [17] 87.9 µM | [18] 33.7 µM

CCOC(=O)/C(=C\c1ccc(N(CCC#N)CCC#N)cc1)NC(=O)c1cc([N+](=O)[O-])ccc1Cl
inactive: [1] > 100 µM | [2] > 100 µM | [3] > 100 µM | [4] > 100 µM | [19] > 100 µM | [6] > 100 µM | [7] 56.1 µM | [8] > 100 µM | [9] > 100 µM | [11] > 100 µM | [12] > 100 µM | [13] > 100 µM | [14] > 100 µM | [15] > 100 µM | [16] > 100 µM | [17] > 100 µM | [18] > 100 µM
